From patent publication US11970497B2, “Tricyclic AKR1C3 dependent KARS inhibitors” (Novartis AG, priority 2019, dated 2024)

Experiments:
Assay in all cases: Expanded lung cancer cell line proliferation assay
Type in all cases: cell-based
LK2 = conditions: Homo sapiens, LK-2; LK2, 72 h, average of PrestoBlue and Cell Titer Glo; AKR1C3 1107 TPM; read-out: Absolute Qualified AC50
Text: (§1) Cellular Proliferation Assay to Assess Compound Activity in an Expanded Panel of 57 NRF2 Pathway Mutant and Wild Type Lung Cancer Cell Lines.
(§2) Both the PrestoBlue Cell Viability Reagent and Cell Titer Glo were multiplexed together as the final assay readout. PrestoBlue is a cell permeable resazurin-based solution that utilizes the reducing power of living cells to quantitatively measure their proliferation. Cell Titer Glo measures the amount of ATP present, an indicator of metabolically active cells.
(§3) Expanded Lung Cancer Cell Line Proliferation Assay Outline, Analysis and Profiling Results
(§4) Cells were seeded into 384 well assay plates (Greiner Bio-One, Catalog #781080) using the Thermo Scientific Matrix WellMate microplate dispenser and Thermo Scientific Matrix WellMate small bore disposable tubing cartridges (Catalog #201-30002) in 30 μl of growth media (RPMI-1640 supplemented with 10% fetal bovine serum and 1% penicillin/streptomycin) per well (1000 to 2000 cells/well depending on doubling time). Following cell plating, assay plates were placed into tissue culture incubator at 37° C./5% CO2 overnight. The next day one assay plate for each cell line was used for a Day 0 Cell Titer Glo and PrestoBlue readout. 3 μl of PrestoBlue Cell Viability Reagent (Thermo Scientific, Catalog #A13262) was added to each well and then assay plates were incubated at 37° C./5% CO2 for 30 minutes prior to fluorescence readout on the EnVision 2105 multimode plate reader (Perkin Elmer). Following the PrestoBlue readout 18 μl of Cell Titer Glo (Promega, Catalog #G7572) was then added to each well, allowing plates to incubate at room temperature for 10 minutes prior to luminescence readout on the EnVision. Compound was then added to the remaining assay plates (each cell line run in triplicates) using the Labcyte Inc Echo 555 acoustic liquid handler. Compounds were arrayed into a Labcyte Inc Echo qualified 384 well LDV microplate (Cat #LP-0200-GNF10). Compounds were serially diluted 1:3.16 to generate an 8 point dose response for a final top concentration of 1 μM. DMSO (0.3%) was used as the neutral control (NC) and MG132 (30 μM) was used as the active control (AC). 90 nl of compounds were added to 30 μl of cells using the Labcyte Inc Echo 555 acoustic liquid handler for a final DMSO assay concentration of 0.3%. Following compound addition, assay plates were spun down in a tabletop centrifuge at 500 rpm for 1 minute and then placed into tissue culture incubator at 37° C./5% CO2 for 72 h. Following the 72 h incubation, all assay plates were readout using PrestoBlue and Cell Titer Glo using the same conditions previously described for the Day 0 readout. The Day 0 readout (untreated cells) was used to compare to the 72 h DMSO treated samples on each assay plate as a way of tracking each cell line's fold growth. NC1 control based normalization was used for data analysis in Helios, which incorporates the DMSO neutral control (NC) and MG132 active control (AC) for generating dose response curves that are then used to calculate the Absolute Qualified AC50 calls for each compound and cell line.
(§5) NC1 normalization calculation model: NC1: xn=±(x−NC)/(AC−NC)
(§6) +/− is set by the inhibition type parameter setting where NC and AC are averages (mean or median) over the corresponding NC and AC well values. The Qualified Absolute AC50 values for Compound 36 and Compound 40 are listed in the table below and are represented as the average activity in both the PrestoBlue and Cell Titer Glo assay readouts.
(§7) Absolute Qualified AC50 Values Listed Below are a Representation of Each Compounds' Average Activity in Both the PrestoBlue and Cell Titer Glo Assay Readouts.

NCI-H810 = conditions: Homo sapiens; NCI-H810, 72 h, average of PrestoBlue and Cell Titer Glo; AKR1C3 52.5 TPM; read-out: Absolute Qualified AC50
Text: as §1, §2, §3, §4, §5, §6, §7

NCI-H23 = conditions: Homo sapiens; NCI-H23, 72 h, average of PrestoBlue and Cell Titer Glo; AKR1C3 1 TPM; read-out: Absolute Qualified AC50
Text: as §1, §2, §3, §4, §5, §6, §7

CORL-279 = conditions: Homo sapiens, COR-L279; CORL-279, 72 h, average of PrestoBlue and Cell Titer Glo; AKR1C3 3.6 TPM; read-out: Absolute Qualified AC50
Text: as §1, §2, §3, §4, §5, §6, §7

Calu-6 = conditions: Homo sapiens; Calu-6, 72 h, average of PrestoBlue and Cell Titer Glo; AKR1C3 32.5 TPM; read-out: Absolute Qualified AC50
Text: as §1, §2, §3, §4, §5, §6, §7

NCI-H1568 = conditions: NCI-H1568, 72 h, average of PrestoBlue and Cell Titer Glo; AKR1C3 2.8 TPM; read-out: Absolute Qualified AC50
Text: as §1, §2, §3, §4, §5, §6, §7

NCI-H226 = conditions: Homo sapiens; NCI-H226, 72 h, average of PrestoBlue and Cell Titer Glo; AKR1C3 2.9 TPM; read-out: Absolute Qualified AC50
Text: as §1, §2, §3, §4, §5, §6, §7

DV-90 = conditions: Homo sapiens; DV-90, 72 h, average of PrestoBlue and Cell Titer Glo; AKR1C3 48.9 TPM; read-out: Absolute Qualified AC50
Text: as §1, §2, §3, §4, §5, §6, §7

NCI-H2122 = conditions: Homo sapiens; NCI-H2122, 72 h, average of PrestoBlue and Cell Titer Glo; AKR1C3 1507.5 TPM; read-out: Absolute Qualified AC50
Text: as §1, §2, §3, §4, §5, §6, §7

NCI-H1373 = conditions: Homo sapiens; NCI-H1373, 72 h, average of PrestoBlue and Cell Titer Glo; AKR1C3 8 TPM; read-out: Absolute Qualified AC50
Text: as §1, §2, §3, §4, §5, §6, §7

NCI-H1299 = conditions: Homo sapiens; NCI-H1299, 72 h, average of PrestoBlue and Cell Titer Glo; AKR1C3 1.3 TPM; read-out: Absolute Qualified AC50
Text: as §1, §2, §3, §4, §5, §6, §7

NCI-H1703 = conditions: Homo sapiens; NCI-H1703, 72 h, average of PrestoBlue and Cell Titer Glo; AKR1C3 3.2 TPM; read-out: Absolute Qualified AC50
Text: as §1, §2, §3, §4, §5, §6, §7

NCI-H1792 = conditions: Homo sapiens; NCI-H1792, 72 h, average of PrestoBlue and Cell Titer Glo; AKR1C3 418.6 TPM; read-out: Absolute Qualified AC50
Text: as §1, §2, §3, §4, §5, §6, §7

NCI-H2172 = conditions: NCI-H2172, 72 h, average of PrestoBlue and Cell Titer Glo; AKR1C3 1522.4 TPM; read-out: Absolute Qualified AC50
Text: as §1, §2, §3, §4, §5, §6, §7

CN1c2ccc(F)cc2C(=O)CC12CCN(C(=O)NCc1ccc(F)c(NCCO)c1)CC2 [Example 36, 6′-fluoro-N-(4-fluoro-3-((2-hydroxyethyl)amino)benzyl)-1′-methyl-4′-oxo-3′,4′-dihydro-1′H-spiro[piperidine-4,2′-quinoline]-1-carboxamide]
AC50 (LK2): > 1 µM
AC50 (NCI-H810): > 1 µM
AC50 (NCI-H23): > 1 µM
AC50 (CORL-279): > 1 µM
AC50 (Calu-6): > 1 µM
AC50 (NCI-H1568): > 1 µM
AC50 (NCI-H226): > 1 µM
AC50 (DV-90): 0.347 µM
AC50 (NCI-H2122): 0.258 µM
AC50 (NCI-H1373): > 1 µM
AC50 (NCI-H1299): > 1 µM
AC50 (NCI-H1703): > 1 µM
AC50 (NCI-H1792): 0.553 µM
AC50 (NCI-H2172): > 1 µM

O=C1CC2(CCN(C(=O)NCc3ccc(F)cc3)CC2)Nc2ccc(F)cc21 [Example 40]
AC50 (LK2): > 1 µM
AC50 (NCI-H810): 0.983 µM
AC50 (NCI-H23): > 1 µM
AC50 (CORL-279): > 1 µM
AC50 (Calu-6): > 1 µM
AC50 (NCI-H1568): > 1 µM
AC50 (NCI-H226): > 1 µM
AC50 (DV-90): 0.159 µM
AC50 (NCI-H2122): 0.056 µM
AC50 (NCI-H1373): > 1 µM
AC50 (NCI-H1299): > 1 µM
AC50 (NCI-H1703): > 1 µM
AC50 (NCI-H1792): 0.196 µM
AC50 (NCI-H2172): 0.149 µM
